Measurements from patent US5004758A, “Water soluble camptothecin analogs useful for inhibiting the growth of animal tumor cells” (priority 1988, dated 1991).
Where a name gives a salt, the structure may show the parent alone. Read-outs that look alike come from different tables or passages of the source.

What was measured:
in vivo [1] = details: mouse, ip
From the text: Tumors used in these studies--P388 leukemia and its doxorbicin--and mitoxanrone-resistant sublines, L1210 leukemia, B16 melanoma, B16 melanoma/F10 subline, M5076 sarcoma and colon carcinoma 26--are maintained by serial transplantation in syngeneic strains of mice. For the leukemias, these tumors are maintained in DBA/2 mice. The M5076 sarcoma, the B16 melanoma and its F10 subline are maintained in C57B1/6 mice and the colon sarcinoma 26 is maintained in BALB/c mice. The leukemias and the M5076 sarcoma are serially transplanted i.p. as ascites cell suspensions while the B16 melanoma lines and the colon carcinoma 26 are serially transplanted as s.c. solid tumors.
For therapeutic trials, tumors are aseptically removed from donor mice and prepared as suspensions for implantation ip into test animals. The test animals for the colon carcinoma 26 are female BALB/c mice (20-25 gm). The test animals for the other tumor models are syngeneic female F1 hybrid B6D2F1 mice (C57B1/6 x DBA/2). The inoculum level varies with the type of tumor: P388 leukemia is inoculated at 10^6 cells per mouse, L1210 leukemia at 10^5 or 10^6 cells per mouse, M5076 sarcoma at 5×10^6 cells per mouse. For implantation of the B16 melanoma lines and the colon carcinoma 26, s.c. tumors from donor mice are minced and homogenized in loose fitting teflon glass homogenizer to give a tumor brei. The inoculum levels are 0.5 ml of a 10 percent (w:v) brei of the B16 melanoma lines and 0.5 ml of a 5 percent (w:v) brei of colon carcinoma 26. After tumor inoculation, mice randomized to treatment groups comprised of 6-8 mice each. In each experiment, there are three groups of untreated control mice. Drugs are dissolved or suspended in appropriate aqueous vehicles and given by a variety of routes and schedules of administration over a range of dose levels. Animals are housed in shoebox cages and are monitored daily for mortality for 30 (L1210), 45 (P388) or 60 (B16, M5076, colon 26) days.

sc ADJ-PC6 plasmacytoma = test: sc-implanted ADJ-PC6 plasmacytoma in mice; type: in vivo, mouse; details: for Mice without Palpable Tumors: sc ADJ-PC6, B/ip
Protocol: Inhibition of tumor growth (TGI) is based on mean tumor volume of groups of 7 or 8 mice relative to untreated controls. Tumors were measured between Days 12 and 19 (except Day 24 for Colon 51 and Day 31 for Colon 38).
(§2) Tumors used in these studies are maintained by serial transplantation in syngeneic strains of mice C57BL/6 for Lewis lung carcinoma, B16 melanoma and its F10 subline, M5076 sarcoma and colon adenocarcinoma 38; BALB/c for colon carcinoma 26, ADJ-PC6 plasmacytoma Madison lung carcinoma and colon adenocarcinoma 51, C3H for mammary adenocarcinoma 16/c. With the exception of the M5076 sarcoma, which is maintained as a i.p ascites cell suspension, all of the tumors were serially transplanted as s.c. solid tumors.
(§3) For therapeutic trials, tumors were aseptically removed from donor mice and prepared for implantation s.c. into test animals. The test animals for Lewis lung carcinoma, B16 melanoma and its F10 subline, M5076 sarcoma and colon adenocarcinoma 38 are syngeneic female F1 hybrid B6D2F mice (C57B1/6×DBA/2). ADJ-PC6 plasmacytoma and colon carcinoma 26 are evaluated in female BALB/c mice. Madison lung carcinoma and colon adenocarcinoma 51 are evaluated in syngeneic female F1 hybrid CD2F1 mice (BALB/c×DBA/2). Mammary adenocarcinoma 16/c is evaluated in female C3H mice. The inoculum varies with the tumor. Colon adenocarcinomas 38 is implanted as 2 mm fragments by trochar. M5076 sarcoma and ADJ-PC6 plasmacytoma are implanted as cell suspensions at 5×10^6 and 2×10^6 cells per mouse, respectively. Colon carcinoma 26, colon adenocarcinoma 51, Lewis lung carcinoma, Madison lung carcinoma and B16 melanoma and its F10 subline are implanted as tumor breis prepared as described above in a volume of 0.5 ml. The brei concentration was 10 percent (w:v) except for colon carcinoma 26 for which the brei concentration was 5 percent (w:v). After tumor inoculation, mice are randomized to treatment groups of 7 or 8 mice. In each experiment, there are three groups of untreated control mice.
(§4) Drugs are dissolved or suspended in appropriate aqueous vehicles and given by a variety of routes of administration and treatment schedules over a range of dosage levels. Animals are housed in shoebox cages and are monitored daily for mortality. […] Time for tumor measurement is dependent on the different rates of tumor growth of the different tumors: the most rapidly growing tumors such as the Lewis and Madison lung tumors, B16 melanoma and its F10 subline were measured between Days 12 and 16. The slower growing tumors were measured at later time points--17 days for M5076 sarcoma, 16 or 19 days for mammary adenocarcinoma 16/c, 19 days for ADJ-PC6 plasmacytoma and colon carcinoma 26, 24 days for colon adenocarcinoma 51, and 31 days for colon adenocarcinoma 38.

in vivo [2] = details: mouse, ip; remark: listed apart in the source
[3] = test system: sc B16 melanoma/F10 subline; test: sc-implanted B16 melanoma/F10 subline in mice; type: in vivo, mouse
From the text: (§1) The inoculum varies with the tumor.

sc colon carcinoma 26 = test: sc-implanted colon carcinoma 26 in mice; type: in vivo, mouse; details: for Tumor growth inhibition (TGI): sc Colon 26, B/ip (Days 1, 5, 9 and 13)
From the text: as §1

sc B16 melanoma = details: for ILS: mouse, in vivo; for Tumor growth inhibition (TGI) / Mice without Palpable Tumors: sc B16
From the text: Inhibition of tumor growth (TGI) is based on mean tumor volume of groups of 7 or 8 mice relative to untreated controls.
as §2, §3, §4
For highly metastatic tumors including: Lewis and Madison lung tumors, colon carcinoma 26 and B16 melanoma and its F10 subline, tumor-bearing mice are monitored for survival time as well. For the less mestastatic tumor models, tumor-bearing mice are killed following tumor measurement. In this setting, an increase in lifespan of ≥30 percent is considered to be evidence of drug activity.

in vivo [4] = details: mouse, ip; remark: listed apart in the source
From the text: (§5) Tumors used in these studies P388 leukemia, L1210 leukemia and Lewis lung carcinoma--are maintained by serial transplantation in syngeneic strains of mice, DBA/2 for the leukemias and C57B1/6 for Lewis lung carcinoma. The leukemias are serially transplanted i.p. as ascites cell suspensions while the Lewis lung carcinoma is serially transplanted as a s.c. solid tumor.
(§6) For therapeutic trials, tumors were aseptically removed from donor mice and prepared as suspensions for implantation into test animals which for each tumor are syngeneic female F1 hybrid B6D2F1 mice (C57B1/6×DBA/2). The inoculum level varies with the type of tumor: P388 leukemia is inoculated at 10^6 cells per mouse, L1210 leukemia at 10^5 or 10^6 cells per mouse, and Lewis lung carcinoma at 0.25 ml of a 10 percent (w:v) brei. […] After tumor inoculation, mice are randomized to treatment groups of 6 to 8 mice each. In each experiment, there are three groups of untreated control mice.
(§7) Drugs are dissolved or suspended in appropriate aqueous vehicles and given i.p. or i.v. on various treatment schedules over a range of dosage levels. Animals are housed in shoebox cages and monitored daily for mortality for 30 (L1210), 45 (P388) or 60 (Lewis lung) days.

iv L1210 leukemia = details: mouse, in vivo
From the text: Animals were inoculated iv with 10^6 cells. Increase in lifespan (ILS) is based on median survival time of groups of 6 mice relative to untreated controls.
The protocols utilized for the evaluation of the antitumor activity of Formula (I) compounds are well established and widely utilized by those skilled in the art of assessing the activity of drugs in preclinical tumor models. These studies generally follow the protocols established by the National Cancer Institute as described by Geran et al., Cancer Chemotherapy Reports, Part 3, Vol. 3, 1-103, 1972.
as §5, §6, §7

CC[C@@]1(O)C(=O)OCc2c1cc1n(c2=O)Cc2cc3c(CN(C)C)c(O)ccc3nc2-1 [Compound No. 1S, (20 S) 9-Dimethylaminomethyl-10-hydroxycamptothecin Acetate Salt]
MTD (in vivo [1]): 15 mg/kg | inhibition of tumor growth at four dose levels at or below the maximally tolerated dose (sc ADJ-PC6 plasmacytoma; mouse, in vivo): > 90 | long term tumor-free survivors at each of the top three dose levels (sc ADJ-PC6 plasmacytoma; mouse, in vivo): 1 of 8 | Tumor growth inhibition (TGI) (sc ADJ-PC6 plasmacytoma; mouse, in vivo, 3.2 mg/kg): 93% | Tumor growth inhibition (TGI) (sc ADJ-PC6 plasmacytoma; mouse, in vivo, 5.4 mg/kg): 92% | long-term, tumorfree survivors (sc ADJ-PC6 plasmacytoma; mouse, in vivo, 5.4 mg/kg): 1/8 | Tumor growth inhibition (TGI) (sc ADJ-PC6 plasmacytoma; mouse, in vivo, 9 mg/kg): 100% | long-term, tumorfree survivors (sc ADJ-PC6 plasmacytoma; mouse, in vivo, 9 mg/kg): 1/8 | long-term, tumorfree survivors (sc ADJ-PC6 plasmacytoma; mouse, in vivo, 15 mg/kg): 1/8 | Tumor growth inhibition (TGI) (sc ADJ-PC6 plasmacytoma; mouse, in vivo, 25 mg/kg): toxic | Increase in Lifespan (ILS) or Inhibition of Tumor Growth (TGI) (sc ADJ-PC6 plasmacytoma; mouse, in vivo, sc): 100 % TGI | Mice without Palpable Tumors (sc ADJ-PC6 plasmacytoma; 3.2 mg/kg/injection): 3/8 | Mice without Palpable Tumors (sc ADJ-PC6 plasmacytoma; 5.4 mg/kg/injection): 4/8 | Mice without Palpable Tumors (sc ADJ-PC6 plasmacytoma; 9 mg/kg/injection): 8/8 | Mice without Palpable Tumors (sc ADJ-PC6 plasmacytoma; 15 mg/kg/injection): 7/7 | MTD (in vivo [2]): 15 mg/kg | Increase in Lifespan (ILS) or Inhibition of Tumor Growth (TGI) ([3]; mouse, in vivo, sc): 100 % TGI | Tumor growth inhibition (TGI) ([3]; sc B16/F10, B/ip (Days 1, 5, 9 and 13), 3.2 mg/kg/injection): 52% | Tumor growth inhibition (TGI) ([3]; sc B16/F10, B/ip (Days 1, 5, 9 and 13), 5.4 mg/kg/injection): 62% | Tumor growth inhibition (TGI) ([3]; sc B16/F10, B/ip (Days 1, 5, 9 and 13), 9 mg/kg/injection): 57% | Tumor growth inhibition (TGI) ([3]; sc B16/F10, B/ip (Days 1, 5, 9 and 13), 15 mg/kg/injection): 87% | Tumor growth inhibition (TGI) ([3]; sc B16/F10, B/ip (Days 1, 5, 9 and 13), 25 mg/kg/injection): 100% | Mice without Palpable Tumors ([3]; sc B16/F10, B/ip, 25 mg/kg/injection): 7/8 | Tumor growth inhibition (TGI) ([3]; sc B16/F10, F/iv (Days 1, 5 and 9), 3.2 mg/kg/injection): 22% | Tumor growth inhibition (TGI) ([3]; sc B16/F10, F/iv (Days 1, 5 and 9), 5.4 mg/kg/injection): 34% | Tumor growth inhibition (TGI) ([3]; sc B16/F10, F/iv (Days 1, 5 and 9), 9 mg/kg/injection): 60% | Tumor growth inhibition (TGI) ([3]; sc B16/F10, F/iv (Days 1, 5 and 9), 15 mg/kg/injection): 97% | Tumor growth inhibition (TGI) ([3]; sc B16/F10, F/iv (Days 1, 5 and 9), 25 mg/kg/injection): 97% | Mice without Palpable Tumors ([3]; sc B16/F10, F/iv, 3.2 mg/kg/injection): 1/8 | Mice without Palpable Tumors ([3]; sc B16/F10, F/iv, 5.4 mg/kg/injection): 1/8 | Mice without Palpable Tumors ([3]; sc B16/F10, F/iv, 9 mg/kg/injection): 2/8 | Mice without Palpable Tumors ([3]; sc B16/F10, F/iv, 15 mg/kg/injection): 7/8 | Mice without Palpable Tumors ([3]; sc B16/F10, F/iv, 25 mg/kg/injection): 6/8 | Increase in lifespan (ILS) ([3]; sc B16/F10, ip treatment at 25): 70% | tumor growth inhibition at two dose levels ([3]; sc B16/F10, iv on Days 1, 5 and 9): 97% | ILS ([3]; sc B16/F10, iv treatment at the same dose level (25)): 38% | inhibition of tumor growth at the maximally tolerated dose (sc colon carcinoma 26; mouse, in vivo, sc): > 70 | Tumor growth inhibition (TGI) (sc colon carcinoma 26; 5 mg/kg/injection): 39% | Tumor growth inhibition (TGI) (sc colon carcinoma 26; 10 mg/kg/injection): 72% | Tumor growth inhibition (TGI) (sc colon carcinoma 26; 20 mg/kg/injection): toxic | Increase in Lifespan (ILS) or Inhibition of Tumor Growth (TGI) (sc colon carcinoma 26; sc Colon Carcinoma 26, optimal doses and optimal schedules): 72 % TGI | ILS (sc B16 melanoma): 53 | ILS (sc B16 melanoma; 24 mg/kg): 39 | ILS (sc B16 melanoma; sc): 52 | Tumor growth inhibition (TGI) (sc B16 melanoma; C/ip (every 3 hours x4 on Days 1, 5 and 9), 0.78 mg/kg/injection): 46% | Tumor growth inhibition (TGI) (sc B16 melanoma; C/ip (every 3 hours x4 on Days 1, 5 and 9), 1.3 mg/kg/injection): 64% | Tumor growth inhibition (TGI) (sc B16 melanoma; C/ip (every 3 hours x4 on Days 1, 5 and 9), 2.2 mg/kg/injection): 92% | Tumor growth inhibition (TGI) (sc B16 melanoma; C/ip (every 3 hours x4 on Days 1, 5 and 9), 3.6 mg/kg/injection): 100% | Tumor growth inhibition (TGI) (sc B16 melanoma; C/ip (every 3 hours x4 on Days 1, 5 and 9), 6 mg/kg/injection): 100% | Mice without Palpable Tumors (sc B16 melanoma; C/ip, 0.78 mg/kg/injection): 1/8 | Mice without Palpable Tumors (sc B16 melanoma; C/ip, 1.3 mg/kg/injection): 1/8 | Mice without Palpable Tumors (sc B16 melanoma; C/ip, 2.2 mg/kg/injection): 2/8 | Mice without Palpable Tumors (sc B16 melanoma; C/ip, 3.6 mg/kg/injection): 7/7 | Mice without Palpable Tumors (sc B16 melanoma; C/ip, 6 mg/kg/injection): 7/7 | Tumor growth inhibition (TGI) (sc B16 melanoma; F/ip (Days 1, 5 and 9), 3.1 mg/kg/injection): 63% | Tumor growth inhibition (TGI) (sc B16 melanoma; F/ip (Days 1, 5 and 9), 5.2 mg/kg/injection): 20% | Tumor growth inhibition (TGI) (sc B16 melanoma; F/ip (Days 1, 5 and 9), 8.6 mg/kg/injection): 63% | Tumor growth inhibition (TGI) (sc B16 melanoma; F/ip (Days 1, 5 and 9), 14 mg/kg/injection): 57% | Tumor growth inhibition (TGI) (sc B16 melanoma; F/ip (Days 1, 5 and 9), 24 mg/kg/injection): 99% | Mice without Palpable Tumors (sc B16 melanoma; F/ip, 3.1 mg/kg/injection): 2/8 | Mice without Palpable Tumors (sc B16 melanoma; F/ip, 5.2 mg/kg/injection): 1/8 | Mice without Palpable Tumors (sc B16 melanoma; F/ip, 8.6 mg/kg/injection): 3/8 | Mice without Palpable Tumors (sc B16 melanoma; F/ip, 14 mg/kg/injection): 3/8 | Mice without Palpable Tumors (sc B16 melanoma; F/ip, 24 mg/kg/injection): 7/8 | Tumor growth inhibition (TGI) (sc B16 melanoma; F/iv (Days 1, 5 and 9), 3.2 mg/kg/injection): 54% | Tumor growth inhibition (TGI) (sc B16 melanoma; F/iv (Days 1, 5 and 9), 5.4 mg/kg/injection): 79% | Tumor growth inhibition (TGI) (sc B16 melanoma; F/iv (Days 1, 5 and 9), 9 mg/kg/injection): 96% | Tumor growth inhibition (TGI) (sc B16 melanoma; F/iv (Days 1, 5 and 9), 15 mg/kg/injection): 99% | Tumor growth inhibition (TGI) (sc B16 melanoma; F/iv (Days 1, 5 and 9), 25 mg/kg/injection): toxic | Mice without Palpable Tumors (sc B16 melanoma; F/iv, 3.2 mg/kg/injection): 2/8 | Mice without Palpable Tumors (sc B16 melanoma; F/iv, 5.4 mg/kg/injection): 3/8 | Mice without Palpable Tumors (sc B16 melanoma; F/iv, 9 mg/kg/injection): 6/8 | Mice without Palpable Tumors (sc B16 melanoma; F/iv, 15 mg/kg/injection): 7/8 | Increase in Lifespan (ILS) or Inhibition of Tumor Growth (TGI) (sc B16 melanoma; sc B16 Melanoma, optimal doses and optimal schedules): 100 % TGI | MTD (in vivo [4]): 15 mg/kg | ILS (iv L1210 leukemia; 3.2 mg/kg): 50% | Increase in lifespan (ILS) (iv L1210 leukemia; 3.2 mg/kg): 57% | ILS (iv L1210 leukemia; 5.4 mg/kg): 67% | Increase in lifespan (ILS) (iv L1210 leukemia; 5.4 mg/kg): 93% | ILS (iv L1210 leukemia; 9 mg/kg): 83% | Increase in lifespan (ILS) (iv L1210 leukemia; 9 mg/kg): 136% | Increase in lifespan (ILS) (iv L1210 leukemia; 15 mg/kg): 171% | Long-Term Survivors (iv L1210 leukemia; 15 mg/kg): 1/6 | ILS (iv L1210 leukemia; 25 mg/kg): toxic | Increase in lifespan (ILS) (iv L1210 leukemia; 25 mg/kg): toxic | Increase in Lifespan (ILS) or Inhibition of Tumor Growth (TGI) (iv L1210 leukemia; iv): Curative | Long-Term Survivors (iv L1210 leukemia; iv, 1.3 mg/kg): 2/7 | Long-Term Survivors (iv L1210 leukemia; iv, 2.2 mg/kg): 1/7 | Long-Term Survivors (iv L1210 leukemia; iv, 3.6 mg/kg): 5/7 | Long-Term Survivors (iv L1210 leukemia; iv, 24 mg/kg): 4/7
